Data taken from US20080261994A1, “CYCLOPROPANE COMPOUNDS AND PHARMACEUTICAL USE THEREOF” (Japan Tobacco Inc., priority 2003, published 2008).
Like-named read-outs stand apart in the source and are kept apart here.

Key:
Type in all cases: biochemical
[1] = target: T1, aggrecanase-1 (Homo sapiens, UniProt O75173); assay: Aggrecanase-1 inhibitory action (Particle Assay, GAG release from aggrecan-containing polyacrylamide particles)
T1 sequence (O75173 213-837): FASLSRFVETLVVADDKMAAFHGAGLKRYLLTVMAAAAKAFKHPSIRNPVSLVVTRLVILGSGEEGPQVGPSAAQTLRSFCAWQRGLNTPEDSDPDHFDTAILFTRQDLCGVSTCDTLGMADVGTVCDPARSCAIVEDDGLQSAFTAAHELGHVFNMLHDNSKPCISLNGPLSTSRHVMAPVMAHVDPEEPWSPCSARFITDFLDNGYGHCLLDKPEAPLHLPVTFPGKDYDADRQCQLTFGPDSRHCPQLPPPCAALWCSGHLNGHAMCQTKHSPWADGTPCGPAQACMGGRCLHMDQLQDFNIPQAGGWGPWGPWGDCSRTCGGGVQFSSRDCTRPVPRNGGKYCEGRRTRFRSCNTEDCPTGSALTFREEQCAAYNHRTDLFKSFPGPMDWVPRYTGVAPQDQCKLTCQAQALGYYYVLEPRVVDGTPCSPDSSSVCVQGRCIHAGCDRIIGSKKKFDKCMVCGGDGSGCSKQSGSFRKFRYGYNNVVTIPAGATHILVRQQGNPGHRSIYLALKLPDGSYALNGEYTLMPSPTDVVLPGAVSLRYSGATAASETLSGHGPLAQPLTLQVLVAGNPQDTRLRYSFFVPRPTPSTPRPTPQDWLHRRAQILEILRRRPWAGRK
In short: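 Enzyme and compound incubated with aggrecan-containing polyacrylamide particles in Tris-HCl buffer at 37° C for 15 h. Released GAG in supernatant measured with 1,9-dimethylmethylene blue at 595 nm against chondroitin sulfate standard; % inhibition from enzyme-free and inhibitor-free wells, reported as TC50 (μM).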

[2] = target: T2, MMP-1 (Homo sapiens, UniProt P03956); assay: MMP-1 inhibitory action (Type I collagen Activity Measurement kit, FITC-labeled collagen type I)
T2 sequence (P03956 100-469): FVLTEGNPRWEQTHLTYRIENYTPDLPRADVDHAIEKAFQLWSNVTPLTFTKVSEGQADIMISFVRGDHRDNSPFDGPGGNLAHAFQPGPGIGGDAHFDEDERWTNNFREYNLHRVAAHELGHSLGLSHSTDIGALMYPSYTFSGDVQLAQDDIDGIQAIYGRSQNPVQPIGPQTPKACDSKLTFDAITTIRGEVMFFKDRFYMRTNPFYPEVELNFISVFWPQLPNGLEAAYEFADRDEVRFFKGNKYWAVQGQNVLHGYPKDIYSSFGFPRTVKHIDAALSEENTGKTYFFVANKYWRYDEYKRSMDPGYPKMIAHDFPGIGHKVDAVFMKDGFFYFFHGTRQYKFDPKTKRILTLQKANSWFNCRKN

[3] = target: T3, Recombinant Human MMP-13 (Homo sapiens, UniProt P45452); assay: MMP-13 inhibitory activity (MMP-13 specific fluorescent substrate with quencher)
T3 construct: purchased R&D systems 511-MM
In short: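 Recombinant human MMP-13 with test compound, reaction started with quenched fluorogenic peptide 7-MCA-Pro-CHA-Gly-NVal-His-Ala-DPA in Tris-HCl buffer, 1 h at 25 °C, stopped with acetic acid. Fluorescence at Ex 325/Em 405 nm; % inhibition versus enzyme-free and inhibitor-free wells, reported as IC50 (μM).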

[4] = Experimental Example 1, read-out: IC50 AG1
[5] = Experimental Example 2, read-out: IC50 MMP1
[6] = Experimental Example 3, read-out: IC50 MMP13
[7] = aggrecanase-1 inhibitory action, read-out: IC50 AG1 (Experimental Example 1)
[8] = MMP-1 inhibitory action, FITC-labeled collagen type I, 37° C. for 3 hr, read-out: IC50 MMP1 (Experimental Example 2)
[9] = Recombinant Human MMP-13, fluorescent substrate, 25° C. for 1 h, read-out: IC50 MMP13 (Experimental Example 3)

SMILES | IC50 [1, 4] [nM] | IC50 [2, 5] [nM] | IC50 [3, 6] [nM] | IC50 [1, 7] [nM] | IC50 [2, 8] [nM] | IC50 [3, 9] [nM]
CC1[C@H](c2ccccc2)[C@]1(NS(=O)(=O)c1ccc(-c2cc(C3CC3)on2)s1)C(=O)O (stereo partly drawn) [Example 2-433] | < 100 | < 1000 | < 100 |  |  | 
CC1(c2ccccc2Cl)CC1(NS(=O)(=O)c1ccc(-c2cc(C(F)(F)F)on2)s1)C(=O)O (stereo not drawn) [Example 2-616] | < 100 | < 1000 | < 1000 |  |  | 
O=C(O)C1(NS(=O)(=O)c2ccc(-c3ccc(Cl)cc3)s2)CC1c1cccc(CNc2cccnc2)c1 (stereo not drawn) [Example 2-32] |  |  |  | < 100 | ≥ 10000 | < 100
O=C(Cc1ccccc1C1CC1(NS(=O)(=O)c1ccc(-c2ccc(Cl)cc2)s1)C(=O)O)N1CCOCC1 (stereo not drawn) [Example 2-194] |  |  |  | < 1000 | ≥ 10000 | < 1000
CC(C)Nc1ccc2c(c1)CN(S(=O)(=O)N[C@@]1(C(=O)O)C(C)[C@@H]1c1ccccc1)C2 (stereo partly drawn) [Example 2-552] | ≥ 1000 | ≥ 1000 | < 1000 |  |  | 
C[C@]1(c2ccccc2)C[C@@]1(NS(=O)(=O)c1ccc(-n2cc(Cl)cn2)s1)C(=O)O [Example 2-498] | < 100 | ≥ 1000 | < 1000 |  |  | 
O=C(O)[C@]1(NS(=O)(=O)c2ccc(-c3cc(CF)sn3)s2)C[C@@H]1c1ccccc1 [Example 2-120] |  |  |  | < 100 | < 1000 | < 100
O=C(O)C1(NS(=O)(=O)c2ccc(-c3ccc(Cl)cc3)s2)CC1c1ccccc1OCc1ccccc1 (stereo not drawn) [Example 1-84] |  |  |  | < 1000 | ≥ 10000 | < 1000
COCC1(c2ccccc2)CC1(NS(=O)(=O)c1ccc(-c2ccc(Cl)cc2)s1)C(=O)O (stereo not drawn) [Example 2-386] | < 1000 | ≥ 1000 | < 1000 |  |  | 
CC1[C@H](c2ccccc2)[C@]1(NS(=O)(=O)c1ccc(-c2ccc(Cl)cc2)s1)C(=O)O (stereo partly drawn) [Example 2-262] |  |  |  | < 100 | < 1000 | < 100
O=C(O)C1(NS(=O)(=O)c2ccc(-c3ccc(Cl)cc3)s2)CC1(CCO)c1ccccc1 (stereo not drawn) [Example 2-263] |  |  |  | < 100 | ≥ 1000 | < 1000
CC(C)(C)NCCOc1ccccc1C1CC1(NS(=O)(=O)c1ccc(-c2ccc(Cl)cc2)s1)C(=O)O (stereo not drawn) [Example 2-53] |  |  |  | ≥ 1000 | ≥ 10000 | ≥ 1000
C[C@]1(c2ccccc2)C[C@@]1(NS(=O)(=O)c1ccc2c(c1)Cc1cc(Cl)ccc1-2)C(=O)O [Example 2-568] | < 100 | < 1000 | < 100 |  |  | 
C[C@]1(c2ccccc2)C[C@@]1(NS(=O)(=O)c1ccc(-c2cc(C(F)(F)F)on2)s1)C(=O)O [Example 2-6, (1S,2R)-2-methyl-2-phenyl-1-[5-(5-trifluoromethyl-isoxazol-3-yl)-thiophene-2-sulfonylamino]-cyclopropanecarboxylic acid] |  |  |  | < 100 | ≥ 1000 | < 1000
CC(C)(C)C#Cc1ccc(S(=O)(=O)N[C@@]2(C(=O)O)C[C@@H]2c2ccccc2)s1 [Example 2-132] |  |  |  | ≥ 10000 | ≥ 10000 | ≥ 10000
O=C(O)[C@]1(NS(=O)(=O)c2ccc(-c3cc(C(F)(F)F)on3)s2)C[C@@H]1c1cccc(Br)c1 [Example 2-169] |  |  |  | < 100 | ≥ 1000 | < 100
O=C(O)C1(NS(=O)(=O)c2ccc(-c3ccc(Cl)cc3)s2)CC1c1cccc(OCCN2CCOCC2)c1 (stereo not drawn) [Example 2-197] |  |  |  | < 1000 | ≥ 10000 | < 1000
CC(C)C(=O)NCC1(c2ccccc2)CC1(NS(=O)(=O)c1ccc(-c2ccc(Cl)cc2)s1)C(=O)O (stereo not drawn) [Example 2-397] | < 1000 | ≥ 10000 | < 1000 |  |  | 
CN1CCN(C(=O)Cc2cccc(C3CC3(NS(=O)(=O)c3ccc(-c4ccc(Cl)cc4)s3)C(=O)O)c2)CC1 (stereo not drawn) [Example 2-191] |  |  |  | < 100 | ≥ 10000 | < 100

SMILES | IC50 [1, 4] [nM] | IC50 [2, 5] [nM] | IC50 [3, 6] [nM] | IC50 [1, 7] [nM] | IC50 [2, 8] [nM] | IC50 [3, 9] [nM]
O=C(O)[C@]1(NS(=O)(=O)c2ccc(-c3ccc(Cl)cc3)s2)C[C@@H]1c1cccc([N+](=O)[O-])c1 [Example 2-170] |  |  |  | < 100 | ≥ 10000 | < 100
Cn1cc(-c2ccc(S(=O)(=O)N[C@@]3(C(=O)O)C[C@@H]3c3ccccc3)s2)cn1 [Example 2-387] | ≥ 1000 | ≥ 10000 | < 1000 |  |  | 
O=C(O)C1(NS(=O)(=O)N2CCn3c(cc4cc(Cl)ccc43)C2)CC1c1ccccc1 (stereo not drawn) [Example 2-156] |  |  |  | ≥ 1000 | ≥ 10000 | ≥ 1000
CC1[C@H](c2ccccc2)[C@]1(NS(=O)(=O)N1CCCN(c2ccc(F)cn2)CC1)C(=O)O (stereo partly drawn) [Example 2-462] | < 1000 | ≥ 1000 | ≥ 1000 |  |  | 
CCC1(c2ccccc2)CC1(NS(=O)(=O)c1ccc2c(c1)Cc1cc(F)ccc1-2)C(=O)O (stereo not drawn) [Example 2-146] |  |  |  | < 1000 | ≥ 10000 | < 1000
O=C(O)C1(NS(=O)(=O)c2ccc(-c3ccc(Cl)cc3)s2)CC1Cn1nnc2ccccc2c1=O (stereo not drawn) [Example 2-47] |  |  |  | ≥ 1000 | ≥ 10000 | < 1000
O=C(NO)C1(NS(=O)(=O)c2ccc(OCc3ccc(Cl)cc3Cl)cc2)CC1c1ccccc1 (stereo not drawn) [Example 1-2, 1-[4-(2,4-Dichlorobenzyloxy)benzenesulfonylamino]-2-phenylcyclopropanecarboxylic acid hydroxyamide] |  |  |  | < 100 | ≥ 1000 | < 100
O=C(O)C1(NS(=O)(=O)c2ccc(-c3cc(C(F)(F)F)on3)s2)CC1c1cccc(CCO)c1 (stereo not drawn) [Example 2-268] | < 100 | ≥ 1000 | < 100 |  |  | 
O=C(O)CCc1ccccc1C1CC1(NS(=O)(=O)c1ccc(-c2ccc(Cl)cc2)s1)C(=O)O (stereo not drawn) [Example 2-179] |  |  |  | < 100 | ≥ 10000 | < 1000
CC1[C@H](c2ccccc2)[C@]1(NS(=O)(=O)N1CCCN(c2ccc(Cl)cc2)CC1)C(=O)O (stereo partly drawn) [Example 2-454] | < 1000 | ≥ 10000 | ≥ 1000 |  |  | 
C[C@@H]1CN(CC2(c3ccccc3)CC2(NS(=O)(=O)c2ccc(-c3ccc(Cl)cc3)s2)C(=O)O)C[C@H](C)O1 (stereo partly drawn) [Example 2-344] | < 100 | ≥ 10000 | < 1000 |  |  | 
CCC1[C@@H](c2ccccc2)[C@@]1(NS(=O)(=O)c1ccc(-c2cc(C(F)(F)F)on2)s1)C(=O)O (stereo partly drawn) [Example 2-327] | < 1000 | < 1000 | < 100 |  |  | 
CC1[C@H](c2ccccc2)[C@]1(NS(=O)(=O)N1CCN(c2ccc(Cl)cc2)C(=O)C1)C(=O)O (stereo partly drawn) [Example 2-502] | ≥ 1000 | ≥ 1000 | ≥ 1000 |  |  | 
O=C(O)C1(NS(=O)(=O)c2ccc(-c3cc(C(F)(F)F)on3)s2)CC1c1cccc(CO)c1 (stereo not drawn) [Example 2-283] | < 1000 | ≥ 1000 | < 100 |  |  | 
Cc1cc(C2CC2(NS(=O)(=O)c2ccc(-c3cc(C(F)(F)F)on3)s2)C(=O)O)no1 (stereo not drawn) [Example 2-313] | < 1000 | ≥ 1000 | < 1000 |  |  | 
O=C(Nc1ccc(S(=O)(=O)N[C@@]2(C(=O)O)C[C@@H]2c2ccccc2)cc1)c1ccccc1 [Example 2-473] | ≥ 1000 | ≥ 10000 | ≥ 1000 |  |  | 
O=C(O)[C@]1(NS(=O)(=O)c2ccc(-c3ccc(Cl)cc3)s2)C[C@@H]1c1ccccc1CO [Example 2-206] |  |  |  | < 100 | ≥ 1000 | < 100
O=C(O)[C@]1(NS(=O)(=O)c2ccc(-c3cc(C(F)(F)F)no3)s2)C[C@@H]1c1ccccc1 [Example 2-171] |  |  |  | < 1000 | ≥ 10000 | < 1000
CN(CCO)C(=O)OCC1(c2ccccc2)CC1(NS(=O)(=O)c1ccc(-c2cc(C(F)(F)F)on2)s1)C(=O)O (stereo not drawn) [Example 2-332] | < 1000 | ≥ 1000 | < 1000 |  |  | 
